# Reference: PubChem BioAssay AID256 (DTP/NCI, 2004)
# “And” between values parts separate entries of the source, which are not always exact repeats. Equal values may be shown once. Toxic doses and inconclusive results are not listed.
# Test system: CD2F1 mice, L1210 leukemia ip, survival T/C
# Test: NCI In Vivo Anticancer Drug Screen. Data for tumor model L1210 Leukemia (intraperitoneal) in CD2F1 (CDF1) mice
# Conditions: higher = longer survival
# Method in brief: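 Ratio T/C, where T is the treated-group value and C the vehicle-dosed control value, from mice implanted with a transplantable tumor.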
# [1] = endpoint: mean survival time, dose: 100.0 mg/kg/injection, schedule: Q04DX002 (ip), vehicle: saline with Tween-80
compound,measurement,setting,value
CCOc1ccccc1C=C(C#N)C#N,T/C,"endpoint: mean survival time, dose: 25.0 mg/kg/injection, schedule: Q04DX002 (ip), vehicle: saline with Tween-80",96 % of control
same,T/C,"endpoint: mean survival time, dose: 50.0 mg/kg/injection, schedule: Q04DX002 (ip), vehicle: saline with Tween-80",96 % of control
same,T/C,[1],93 % of control
COc1ccc(N2C(=O)C=CC2=O)cc1,T/C,"endpoint: mean survival time, dose: 6.25 mg/kg/injection, schedule: Q01DX001 (ip), vehicle: saline with Tween-80",103 % of control
same,T/C,"endpoint: mean survival time, dose: 12.5 mg/kg/injection, schedule: Q01DX001 (ip), vehicle: saline with Tween-80",88 % of control
same,T/C,"endpoint: mean survival time, dose: 25.0 mg/kg/injection, schedule: Q01DX001 (ip), vehicle: saline with Tween-80",94 % of control and 97 % of control
O=C(O)/C=C/S(=O)(=O)O,T/C,"endpoint: mean survival time, dose: 9.5 mg/kg/injection, schedule: Q01DX001 (ip), vehicle: saline",96 % of control
same,T/C,"endpoint: mean survival time, dose: 19.0 mg/kg/injection, schedule: Q01DX001 (ip), vehicle: saline",98 % of control
same,T/C,"endpoint: mean survival time, dose: 38.0 mg/kg/injection, schedule: Q01DX001 (ip), vehicle: saline",98 % of control
same,T/C,"endpoint: mean survival time, dose: 75.0 mg/kg/injection, schedule: Q01DX001 (ip), vehicle: saline",100 % of control
O=S(=O)(O)c1cc(O)ccc1O.O=S(=O)(O)c1cc(O)ccc1O.[NH-]C1CCCCC1[NH-].[Pt+2],T/C,"endpoint: median survival time, dose: 6.25 mg/kg/injection, schedule: Q04DX003 (ip), vehicle: saline",117 % of control
same,T/C,"endpoint: median survival time, dose: 12.5 mg/kg/injection, schedule: Q04DX003 (ip), vehicle: saline",123 % of control
same,T/C,"endpoint: median survival time, dose: 25.0 mg/kg/injection, schedule: Q04DX003 (ip), vehicle: saline",162 % of control
same,T/C,"endpoint: median survival time, dose: 50.0 mg/kg/injection, schedule: Q04DX003 (ip), vehicle: saline",150 % of control and 337 % of control
same,T/C,"endpoint: median survival time, dose: 100.0 mg/kg/injection, schedule: Q04DX003 (ip), vehicle: saline",235 % of control and 375 % of control
c1ccc2c(c1)Cc1nc3ccccc3nc1-2,T/C,"endpoint: mean survival time, dose: 100.0 mg/kg/injection, schedule: Q01DX009 (ip), vehicle: saline with Tween-80",94 % of control
same,T/C,"endpoint: mean survival time, dose: 100.0 mg/kg/injection, schedule: Q04DX003 (ip), vehicle: saline with Tween-80",105 % of control
same,T/C,"endpoint: mean survival time, dose: 200.0 mg/kg/injection, schedule: Q01DX009 (ip), vehicle: saline with Tween-80",94 % of control
same,T/C,"endpoint: mean survival time, dose: 200.0 mg/kg/injection, schedule: Q04DX003 (ip), vehicle: saline with Tween-80",103 % of control
same,T/C,"endpoint: mean survival time, dose: 400.0 mg/kg/injection, schedule: Q01DX009 (ip), vehicle: saline with Tween-80",97 % of control
same,T/C,"endpoint: mean survival time, dose: 400.0 mg/kg/injection, schedule: Q04DX003 (ip), vehicle: saline with Tween-80",97 % of control
CCCC(=O)Nc1ccc(O)cc1,T/C,"endpoint: mean survival time, dose: 50.0 mg/kg/injection, schedule: Q01DX009 (ip), vehicle: Klucel (hydroxypropylcellulose) (HPC)",95 % of control
same,T/C,"endpoint: mean survival time, dose: 100.0 mg/kg/injection, schedule: Q01DX009 (ip), vehicle: Klucel (hydroxypropylcellulose) (HPC)",91 % of control
same,T/C,"endpoint: mean survival time, dose: 200.0 mg/kg/injection, schedule: Q01DX009 (ip), vehicle: Klucel (hydroxypropylcellulose) (HPC)",104 % of control
same,T/C,"endpoint: mean survival time, dose: 400.0 mg/kg/injection, schedule: Q01DX009 (ip), vehicle: Klucel (hydroxypropylcellulose) (HPC)",123 % of control
O=C1OCCN1NCc1ccc(Cl)cc1,T/C,"endpoint: mean survival time, dose: 12.5 mg/kg/injection, schedule: Q01DX009 (ip), vehicle: DMSO",88 % of control
same,T/C,"endpoint: mean survival time, dose: 25.0 mg/kg/injection, schedule: Q01DX009 (ip), vehicle: DMSO",93 % of control
same,T/C,"endpoint: mean survival time, dose: 50.0 mg/kg/injection, schedule: Q01DX009 (ip), vehicle: DMSO",89 % of control and 91 % of control
same,T/C,"endpoint: mean survival time, dose: 100.0 mg/kg/injection, schedule: Q01DX009 (ip), vehicle: DMSO",96 % of control
CC(C)CC(C)(C)COP(=S)(OCC(C)(C)CC(C)C)OCC(C)(C)CC(C)C,T/C,[1],91 % of control
same,T/C,"endpoint: mean survival time, dose: 200.0 mg/kg/injection, schedule: Q04DX002 (ip), vehicle: saline with Tween-80",91 % of control
same,T/C,"endpoint: mean survival time, dose: 400.0 mg/kg/injection, schedule: Q04DX002 (ip), vehicle: saline with Tween-80",102 % of control
N#CC12CCCC(=O)N1C=Cc1ccccc12 (stereo not given),T/C,"endpoint: mean survival time, dose: 100.0 mg/kg/injection, schedule: Q01DX001 (ip), vehicle: saline",107 % of control
same,T/C,"endpoint: mean survival time, dose: 200.0 mg/kg/injection, schedule: Q01DX001 (ip), vehicle: saline",100 % of control
same,T/C,"endpoint: mean survival time, dose: 400.0 mg/kg/injection, schedule: Q01DX001 (ip), vehicle: saline",97 % of control
